ChEMBL document CHEMBL3734659, “Identification of tris-(phenylalkyl)amines as new selective h5-HT2Breceptor antagonists” (Medchemcomm, 2015)
Active and inactive are the calls of the source. The calls are words filed in the database; no cut-off is given here.

Legend:
[1] = target: Beta-1 adrenergic receptor (Homo sapiens, UniProt P08588); experiment: Displacement of [3H]CGP12177 human recombinant beta 1 adrenergic recptor expressed in CHO Flp-In cells after 90 mins by scintillation counting method; assay type: cell-based
[2] = target: Alpha-2C adrenergic receptor (Homo sapiens, UniProt P18825); experiment: Displacement of [3H]Rauwolscine from human recombinant alpha 2C receptor stably expressed in MDCK cells after 90 mins by scintillation counting method; assay type: cell-based
Alpha-2C adrenergic receptor, sequence (P18825 whole entry): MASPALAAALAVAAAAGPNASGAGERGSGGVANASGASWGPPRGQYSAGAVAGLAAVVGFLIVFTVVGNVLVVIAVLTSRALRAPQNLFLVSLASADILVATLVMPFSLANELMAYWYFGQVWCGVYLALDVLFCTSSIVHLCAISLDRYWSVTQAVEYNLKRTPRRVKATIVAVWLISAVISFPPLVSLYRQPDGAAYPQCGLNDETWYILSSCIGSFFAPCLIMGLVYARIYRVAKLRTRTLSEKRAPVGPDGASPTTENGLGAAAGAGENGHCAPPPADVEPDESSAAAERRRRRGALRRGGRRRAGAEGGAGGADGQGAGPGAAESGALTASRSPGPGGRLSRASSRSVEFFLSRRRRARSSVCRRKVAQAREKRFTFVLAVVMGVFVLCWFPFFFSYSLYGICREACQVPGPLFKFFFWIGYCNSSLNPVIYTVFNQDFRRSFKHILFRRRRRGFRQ

[3] = target: Alpha-1A adrenergic receptor (Homo sapiens, UniProt P35348); experiment: Displacement of [3H]Prazosin from human recombinant alpha 1A receptor after 90 mins by scintillation counting method
[4] = target: T1, 5-hydroxytryptamine receptor 2A (Homo sapiens, UniProt P28223); experiment: Displacement of [3H]ketanserin from human recombinant 5-HT2A receptor expressed in HEKT cell membrane after 90 mins by scintillation counting method; assay type: cell-based
T1 sequence (P28223 whole entry): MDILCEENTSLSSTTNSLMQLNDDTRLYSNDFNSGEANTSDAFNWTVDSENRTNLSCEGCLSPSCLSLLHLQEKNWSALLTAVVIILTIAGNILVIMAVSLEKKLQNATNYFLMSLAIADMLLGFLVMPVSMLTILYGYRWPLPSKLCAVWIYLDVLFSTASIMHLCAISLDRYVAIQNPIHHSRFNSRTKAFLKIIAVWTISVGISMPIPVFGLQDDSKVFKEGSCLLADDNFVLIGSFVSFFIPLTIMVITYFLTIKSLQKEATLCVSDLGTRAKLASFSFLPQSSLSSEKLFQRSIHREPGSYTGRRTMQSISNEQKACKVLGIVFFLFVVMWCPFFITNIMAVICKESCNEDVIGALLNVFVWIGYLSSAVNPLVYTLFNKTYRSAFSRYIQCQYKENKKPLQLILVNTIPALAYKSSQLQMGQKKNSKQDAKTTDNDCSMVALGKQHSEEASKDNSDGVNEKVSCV

[5] = target: T2, 5-hydroxytryptamine receptor 2B (Homo sapiens, UniProt P41595); experiment: Displacement of [3H]LSD from human recombinant 5-HT2B receptor stably expressed in HEK cell membrane after 90 mins by scintillation counting method; assay type: cell membranes, HEK293
T2 sequence (P41595 whole entry): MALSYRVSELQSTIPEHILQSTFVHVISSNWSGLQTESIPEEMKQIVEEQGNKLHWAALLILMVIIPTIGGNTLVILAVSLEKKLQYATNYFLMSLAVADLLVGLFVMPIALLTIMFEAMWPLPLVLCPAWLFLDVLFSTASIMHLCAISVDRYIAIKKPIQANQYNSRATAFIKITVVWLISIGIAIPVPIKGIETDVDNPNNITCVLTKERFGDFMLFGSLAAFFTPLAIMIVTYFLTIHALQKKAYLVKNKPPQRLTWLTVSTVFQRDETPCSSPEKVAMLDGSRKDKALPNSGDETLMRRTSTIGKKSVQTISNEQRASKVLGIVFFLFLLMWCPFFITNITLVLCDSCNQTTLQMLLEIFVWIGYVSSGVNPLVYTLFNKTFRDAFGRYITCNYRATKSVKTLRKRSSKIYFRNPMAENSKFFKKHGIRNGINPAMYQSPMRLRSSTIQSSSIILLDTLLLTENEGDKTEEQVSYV

[6] = target: T3, 5-hydroxytryptamine receptor 2C (Homo sapiens, UniProt P28335); experiment: Displacement of [3H]mesulergine from human recombinant 5-HT2C receptor expressed in Flp-IN HEK cell membrane after 90 mins by scintillation counting method; assay type: cell membranes, HEK293; conditions: read-out: Ki
T3 sequence (P28335 whole entry): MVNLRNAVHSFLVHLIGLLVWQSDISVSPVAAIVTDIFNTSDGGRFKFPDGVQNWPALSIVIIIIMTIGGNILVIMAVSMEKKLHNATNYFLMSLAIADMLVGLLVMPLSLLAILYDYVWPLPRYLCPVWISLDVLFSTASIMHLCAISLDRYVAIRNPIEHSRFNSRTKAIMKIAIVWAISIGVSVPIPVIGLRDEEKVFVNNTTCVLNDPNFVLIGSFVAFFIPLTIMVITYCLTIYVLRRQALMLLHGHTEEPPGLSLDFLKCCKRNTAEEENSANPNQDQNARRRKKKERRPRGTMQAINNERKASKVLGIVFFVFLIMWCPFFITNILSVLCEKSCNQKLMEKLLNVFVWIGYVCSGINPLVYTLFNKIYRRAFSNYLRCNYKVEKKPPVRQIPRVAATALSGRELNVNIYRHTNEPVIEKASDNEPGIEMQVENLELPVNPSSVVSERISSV

HEK293 [7] = experiment: Selectivity ratio of Ki for human recombinant 5-HT2A receptor expressed in HEKT cell membrane to Ki for human recombinant 5-HT2B receptor stably expressed in HEK cells; assay type: cell-based
HEK293 [8] = experiment: Selectivity ratio of Ki for human recombinant 5-HT2C receptor to Ki for human recombinant 5-HT2B receptor stably expressed in HEK cell membrane; assay type: cell-based
[9] = target: 5-hydroxytryptamine receptor 1D (Homo sapiens, UniProt P28221); experiment: Displacement of [3H]5-CT from human recombinant 5-HT1D receptor expressed in HEKT cell membrane after 90 mins by scintillation counting method; assay type: cell membranes
D(2) dopamine receptor = D(2) dopamine receptor (Homo sapiens, UniProt P14416); experiment: Displacement of [3H]N-methylspiperone from human recombinant dopamine D2 receptor expressed in stable fibroblast after 90 mins by scintillation counting method
D(2) dopamine receptor, sequence (P14416 whole entry): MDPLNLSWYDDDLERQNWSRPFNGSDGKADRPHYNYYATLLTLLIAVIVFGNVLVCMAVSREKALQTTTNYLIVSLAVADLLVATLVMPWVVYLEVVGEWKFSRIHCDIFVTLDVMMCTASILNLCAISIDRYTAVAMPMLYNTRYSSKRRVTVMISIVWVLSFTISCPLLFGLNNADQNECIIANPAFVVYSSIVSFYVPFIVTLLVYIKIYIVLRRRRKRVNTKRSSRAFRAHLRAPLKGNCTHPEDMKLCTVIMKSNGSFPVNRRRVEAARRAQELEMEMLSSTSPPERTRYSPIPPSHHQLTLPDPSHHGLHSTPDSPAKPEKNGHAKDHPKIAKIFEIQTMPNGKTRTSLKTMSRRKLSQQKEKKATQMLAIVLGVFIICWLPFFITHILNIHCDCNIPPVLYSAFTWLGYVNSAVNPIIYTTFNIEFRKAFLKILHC

D(3) dopamine receptor = D(3) dopamine receptor (Homo sapiens, UniProt P35462); experiment: Displacement of [3H]N-methylspiperone from human recombinant dopamine D3 receptor expressed in HEKT cell membrane after 90 mins by scintillation counting method; assay type: cell membranes
D(4) dopamine receptor = D(4) dopamine receptor (Homo sapiens, UniProt P21917); experiment: Displacement of [3H]N-methylspiperone from human recombinant dopamine D4 receptor after 90 mins by scintillation counting method
Histamine H1 receptor = Histamine H1 receptor (Homo sapiens, UniProt P35367); experiment: Displacement of [3H]Pyrilamine from human H1 Histamine receptors stably expressed in HEK cell membrane after 90 mins by scintillation counting method; assay type: cell membranes, HEK293
[10] = target: Kappa-type opioid receptor (Homo sapiens, UniProt P41145); experiment: Displacement of [3H]U69593 from human kappa-opioid receptor stably expressed in HEK cell membrane after 90 mins by scintillation counting method; assay type: cell membranes, HEK293
Kappa-type opioid receptor, sequence (P41145 whole entry): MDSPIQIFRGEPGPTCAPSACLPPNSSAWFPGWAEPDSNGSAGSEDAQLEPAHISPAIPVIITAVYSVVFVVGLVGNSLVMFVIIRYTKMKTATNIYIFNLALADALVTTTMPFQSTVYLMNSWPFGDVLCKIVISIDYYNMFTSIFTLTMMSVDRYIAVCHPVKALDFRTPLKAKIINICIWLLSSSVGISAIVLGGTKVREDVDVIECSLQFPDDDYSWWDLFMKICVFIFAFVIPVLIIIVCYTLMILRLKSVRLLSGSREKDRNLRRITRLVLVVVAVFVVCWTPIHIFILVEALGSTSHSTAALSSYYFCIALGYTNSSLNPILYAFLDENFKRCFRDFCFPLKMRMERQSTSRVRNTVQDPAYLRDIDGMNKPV

[11] = target: Sodium-dependent noradrenaline transporter (Homo sapiens, UniProt P23975); experiment: Displacement of [3H]Nisoxetine from human norepinephrine transporter stably expressed in HEK293 cells after 30 mins by neurotransmitter transporter uptake assay; assay type: cell-based
[12] = target: 5-hydroxytryptamine receptor 5A (Homo sapiens) (UniProt P47898); experiment: Displacement of [3H]LSD from human recombinant 5-HT5A receptor expressed in Flp-In CHO cell membrane after 90 mins by scintillation counting method; assay type: cell membranes
5-hydroxytryptamine receptor 5A (Homo sapiens), sequence (P47898 whole entry): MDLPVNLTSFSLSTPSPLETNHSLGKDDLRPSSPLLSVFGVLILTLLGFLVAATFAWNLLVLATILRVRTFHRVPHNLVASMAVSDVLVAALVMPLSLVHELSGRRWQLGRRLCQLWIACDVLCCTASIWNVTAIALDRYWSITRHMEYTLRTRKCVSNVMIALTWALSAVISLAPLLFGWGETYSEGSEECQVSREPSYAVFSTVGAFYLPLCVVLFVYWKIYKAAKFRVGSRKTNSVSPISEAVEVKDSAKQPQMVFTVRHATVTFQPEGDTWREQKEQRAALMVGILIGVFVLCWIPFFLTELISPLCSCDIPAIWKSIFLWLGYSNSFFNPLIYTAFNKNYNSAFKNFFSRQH

[13] = target: Muscarinic acetylcholine receptor M1 (Homo sapiens) (UniProt P11229); experiment: Displacement of [3H]NMS from human Muscarinic acetylcholine M1 receptor stably expressed in CHO cell after 90 mins by scintillation counting method; assay type: cell-based
Muscarinic acetylcholine receptor M1 (Homo sapiens), sequence (P11229 whole entry): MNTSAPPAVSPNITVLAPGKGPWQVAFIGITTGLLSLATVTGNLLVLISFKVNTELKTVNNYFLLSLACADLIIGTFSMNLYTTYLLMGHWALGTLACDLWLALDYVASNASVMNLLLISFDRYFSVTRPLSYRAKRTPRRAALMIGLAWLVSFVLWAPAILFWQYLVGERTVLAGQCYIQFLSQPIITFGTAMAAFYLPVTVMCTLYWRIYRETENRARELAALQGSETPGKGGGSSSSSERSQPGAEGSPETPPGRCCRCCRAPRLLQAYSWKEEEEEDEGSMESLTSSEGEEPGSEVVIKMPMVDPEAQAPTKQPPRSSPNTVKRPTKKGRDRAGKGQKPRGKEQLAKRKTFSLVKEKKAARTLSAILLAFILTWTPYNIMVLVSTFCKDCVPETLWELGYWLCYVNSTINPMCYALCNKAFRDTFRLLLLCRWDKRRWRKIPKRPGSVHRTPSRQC

[14] = target: Muscarinic acetylcholine receptor M2 (Homo sapiens) (UniProt P08172); experiment: Displacement of [3H]QNB from human Muscarinic acetylcholine M2 receptor stably expressed in CHO cell after 90 mins by scintillation counting method; assay type: cell-based
Muscarinic acetylcholine receptor M2 (Homo sapiens), sequence (P08172 whole entry): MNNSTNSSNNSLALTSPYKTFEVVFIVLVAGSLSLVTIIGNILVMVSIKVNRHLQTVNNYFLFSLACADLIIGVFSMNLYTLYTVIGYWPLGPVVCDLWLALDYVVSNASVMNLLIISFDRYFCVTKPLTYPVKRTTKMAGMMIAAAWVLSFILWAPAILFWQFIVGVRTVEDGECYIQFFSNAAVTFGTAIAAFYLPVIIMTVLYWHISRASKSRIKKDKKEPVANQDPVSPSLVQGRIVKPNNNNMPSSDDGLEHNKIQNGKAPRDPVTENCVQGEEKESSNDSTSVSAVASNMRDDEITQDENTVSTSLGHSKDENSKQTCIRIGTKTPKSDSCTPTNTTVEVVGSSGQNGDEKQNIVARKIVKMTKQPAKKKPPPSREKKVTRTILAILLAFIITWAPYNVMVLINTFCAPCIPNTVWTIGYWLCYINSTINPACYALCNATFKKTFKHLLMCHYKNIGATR

[15] = target: Muscarinic acetylcholine receptor M3 (Homo sapiens) (UniProt P20309); experiment: Displacement of [3H]QNB from human Muscarinic acetylcholine M3 receptor stably expressed in CHO cell after 90 mins by scintillation counting method; assay type: cell-based
Muscarinic acetylcholine receptor M3 (Homo sapiens), sequence (P20309 whole entry, looked up): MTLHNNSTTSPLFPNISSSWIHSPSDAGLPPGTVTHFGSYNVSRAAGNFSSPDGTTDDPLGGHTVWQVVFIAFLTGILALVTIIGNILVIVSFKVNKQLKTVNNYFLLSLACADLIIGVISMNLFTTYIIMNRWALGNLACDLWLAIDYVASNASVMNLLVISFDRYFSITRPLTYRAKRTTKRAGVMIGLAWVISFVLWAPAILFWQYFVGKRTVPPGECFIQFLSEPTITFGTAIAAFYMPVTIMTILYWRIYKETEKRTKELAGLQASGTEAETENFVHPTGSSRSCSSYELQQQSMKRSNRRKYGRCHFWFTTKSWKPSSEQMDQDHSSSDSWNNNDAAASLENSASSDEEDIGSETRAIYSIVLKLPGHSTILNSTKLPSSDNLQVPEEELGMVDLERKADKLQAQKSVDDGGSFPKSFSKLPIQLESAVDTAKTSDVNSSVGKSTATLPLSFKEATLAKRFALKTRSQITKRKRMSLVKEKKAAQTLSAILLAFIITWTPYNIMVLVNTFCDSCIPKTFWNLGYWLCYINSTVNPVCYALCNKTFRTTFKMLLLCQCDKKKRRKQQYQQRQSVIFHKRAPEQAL

[16] = target: Muscarinic acetylcholine receptor M3 (Homo sapiens) (UniProt P20309); experiment: Displacement of [3H]NMS from human Muscarinic acetylcholine M3 receptor stably expressed in CHO cell after 90 mins by scintillation counting method; assay type: cell-based
[17] = target: Muscarinic acetylcholine receptor M4 (Homo sapiens) (UniProt P08173); experiment: Displacement of [3H]QNB from human Muscarinic acetylcholine M4 receptor stably expressed in CHO cell after 90 mins by scintillation counting method; assay type: cell-based
[18] = target: Muscarinic acetylcholine receptor M5 (Homo sapiens) (UniProt P08912); experiment: Displacement of [3H]QNB from human Muscarinic acetylcholine M5 receptor stably expressed in CHO cell after 90 mins by scintillation counting method; assay type: cell-based
Muscarinic acetylcholine receptor M5 (Homo sapiens), sequence (P08912 whole entry): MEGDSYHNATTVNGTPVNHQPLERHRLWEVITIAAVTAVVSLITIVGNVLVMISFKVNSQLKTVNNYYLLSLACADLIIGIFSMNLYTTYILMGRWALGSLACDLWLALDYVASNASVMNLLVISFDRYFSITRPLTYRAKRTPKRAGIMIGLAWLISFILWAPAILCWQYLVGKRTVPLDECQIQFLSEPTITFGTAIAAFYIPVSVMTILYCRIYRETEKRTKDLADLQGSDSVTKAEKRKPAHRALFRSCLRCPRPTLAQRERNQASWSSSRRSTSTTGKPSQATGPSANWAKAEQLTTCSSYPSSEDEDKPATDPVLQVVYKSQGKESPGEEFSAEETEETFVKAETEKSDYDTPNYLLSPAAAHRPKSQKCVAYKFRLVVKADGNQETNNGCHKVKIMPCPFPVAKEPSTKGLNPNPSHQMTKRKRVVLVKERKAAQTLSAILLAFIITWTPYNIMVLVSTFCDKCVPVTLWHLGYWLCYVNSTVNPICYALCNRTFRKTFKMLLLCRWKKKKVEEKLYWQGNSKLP

[19] = target: Translocator protein (Rattus norvegicus) (UniProt P16257); experiment: Displacement of [3H]PK11195 from rat brain PBR after 90 mins by scintillation counting method
Translocator protein (Rattus norvegicus), sequence (P16257 whole entry, looked up): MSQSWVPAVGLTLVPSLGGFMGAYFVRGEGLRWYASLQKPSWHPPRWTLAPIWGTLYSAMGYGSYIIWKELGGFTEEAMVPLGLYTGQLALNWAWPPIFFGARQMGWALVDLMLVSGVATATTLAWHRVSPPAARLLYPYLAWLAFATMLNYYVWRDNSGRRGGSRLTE

[20] = target: T1, 5-hydroxytryptamine receptor 2A; experiment: Antagonist activity at human recombinant 5-HT2A receptor expressed in Flp-In HEK cells in the presence of agonist preincubated for 10 mins by FLIPR based calcium mobilization assay; assay type: functional, cell-based, HEK293
[21] = target: T3, 5-hydroxytryptamine receptor 2C; experiment: Antagonist activity at human recombinant 5-HT2C receptor expressed in Flp-In HEK cells in the presence of agonist preincubated for 10 mins by FLIPR based calcium mobilization assay; assay type: functional, cell-based, HEK293
[22] = target: T2, 5-hydroxytryptamine receptor 2B; experiment: […] antagonist activity at human recombinant 5-HT2B receptor stably expressed in HEK cell membrane by schild plot method; set-up: species or system HEK293; conditions: read-out: pA2 (converted)
[23] = target: T2, 5-hydroxytryptamine receptor 2B; experiment: Agonist activity at human recombinant 5-HT2B receptor expressed in Flp-In HEK cells preincubated for 10 mins by FLIPR based calcium mobilization assay; assay type: functional, cell-based; conditions: HEK293
[24] = target: T1, 5-hydroxytryptamine receptor 2A; experiment: Agonist activity at human recombinant 5-HT2A receptor expressed in Flp-In HEK cells preincubated for 10 mins by FLIPR based calcium mobilization assay; assay type: functional, cell-based; conditions: HEK293
[25] = target: T4, 5-hydroxytryptamine receptor 2C (Homo sapiens) (UniProt P28335); experiment: Agonist activity at human recombinant 5-HT2C receptor expressed in Flp-In HEK cells preincubated for 10 mins by FLIPR based calcium mobilization assay; assay type: functional, cell-based; conditions: HEK293
T4 sequence (whole entry): T3 sequence (P28335 whole entry)

With `COc1ccc(CCN(CCCc2ccccc2)CCc2ccc3c(c2)OCO3)cc1OC` the Ki [1] was 1890 nM, the Ki [2] was 429 nM and the Ki [3] was 333 nM. For the same molecule, the Ki [4] was 165 nM, the Ki [5] was 26 nM and the Ki [6] was 399 nM. It also gave a Ratio Ki (HEK293 [7]) of 6, a Ratio Ki (HEK293 [8]) of 15 and a Ki [9] of 451 nM. It also gave a Ki (D(2) dopamine receptor) of 1730 nM, a Ki (D(3) dopamine receptor) of 498 nM and a Ki (D(4) dopamine receptor) of 853 nM. It also gave a Ki (Histamine H1 receptor) of 1300 nM, a Ki [10] of 363 nM and a Ki [11] of 11 nM. The Activity [12] was “inactive”, the Activity [13] was “inactive” and the Activity [14] was “inactive”. The Activity [15] was “inactive”, the Activity [16] was “inactive” and the Activity [17] was “inactive”. For the same molecule, the Activity [18] was “inactive”, the Activity [19] was “inactive” and the IC50 [20] was 5010 nM. For the same molecule, the IC50 [21] was 12600 nM, the Kb [22] was 550 nM and the Activity [23] was “inactive”. The Activity [24] was “inactive” and the Activity [25] was “inactive”.
